What all share (assay type): cell-based, Pseudomonas aeruginosa
Test [1] relates to PA14. The experiment in a line: Growth curves with DSX and siderophores, WT PA14. The following applies: 20 h. As for the experimental part:
(§1) Supplementary file : FIG S1 (A) FpvB is expressed in WT PA14 and the ΔfpvA mutant grown in 10:90. PilF was used as a loading control for outer membrane proteins. (B) FpvA is expressed from WT PA14 grown in 10:90. […] PilF was used as a loading control for outer membrane proteins. (C) Growth curves of PA14 and mutants with DSX and different siderophores in 10:90. PA14, ΔfpvA, ΔfpvB, ΔfpvA ΔfpvB, and ΔpvdA ΔpchA strain growth. Blue indicates control, purple indicates treatment with 64 μg/mL DSX, yellow indicates treatment with 10 μg/mL pyoverdine (PA14), and red indicates treatment with 64 μg/mL DSX and 10 μg/mL pyoverdine (PA14). (D) ΔfpvA, ΔfpvA ΔfpvB, and ΔpvdA ΔpchA strain growth. Blue indicates control, purple indicates treatment with 64 μg/mL DSX, grey indicates treatment with 10 μg/mL ferrichrome, and red indicates treatment with 64 μg/mL DSX and 10 μg/mL ferrichrome. (E) ΔfpvA, ΔfpvA ΔfpvB, and ΔpvdA ΔpchA strain growth. […] Download FIG S1, EPS file, 8.5 MB.
(§2) Another explanation for the susceptibility of the ΔfpvA mutant to DSX is that the mutant produces less pyoverdine compared to WT cells due to loss of the signaling cascade that controls siderophore production in response to its binding to FpvA ([25]). To differentiate whether the fpvA mutant was susceptible to DSX because of reduced pyoverdine production or because FpvB was a poor pyoverdine transporter, we treated the WT, ΔfpvA, ΔfpvB, and ΔfpvA ΔfpvB strains with DSX (64 μg/mL) without and with exogenous pyoverdine (10 μg/mL) for 20 h (Fig. 1; see also Fig. S1C). Growth of the ΔfpvA mutant should be restored if there are functional pyoverdine transporters. […] The growth of the ΔfpvA ΔfpvB mutant was inhibited by DSX and pyoverdine, confirming previously published results ([18]).

Test [2] relates to PA14 ΔfpvB mutant. The experiment in a line: Growth curves with DSX and siderophores, ΔfpvB. The following applies: 20 h. The protocol: as §1, §2
Test [3] has as its system PA14 ΔfpvA ΔfpvB ΔfiuA ΔfoxA pHERD20T. The experiment in a line: Growth of quadruple mutant with empty vector. As to conditions: 10:90 + 2% arabinose. The protocol:
Site-directed mutagenesis was used to confirm the docking predictions and to define the molecular determinants for ligand uptake through FpvB (Fig. 4C). We generated 17 single amino acid substitutions in FpvB and expressed each of them in trans in the quadruple ΔfpvA ΔfpvB ΔfiuA ΔfoxA mutant. Their ability to complement growth of the mutant in the presence of ferrichrome and ferrioxamine B and to restore TS susceptibility was assessed. […] The mutant transporters were tagged with a C-terminal FLAG tag to evaluate expression levels. FLAG-tagged FpvB mutants had WT levels of expression except for Y216T and W347V, which were expressed at 140% and 25% of WT, respectively.
The ΔfpvA ΔfpvB ΔfiuA ΔfoxA mutant was complemented with WT fpvA, fpvB, fiuA, and foxA in trans as controls (Fig. 4E).
MIC assays were conducted as previously described ([13], [14]). Overnight cultures were grown in LB from a glycerol stock at 37°C with shaking (200 rpm). Subcultures in 10:90 (1:100 dilution) were cultured for 4 h. Cells were adjusted to an optical density at 600 nm (OD600) of 0.1/500 in 10:90. All compounds were serially diluted 2-fold in dimethyl sulfoxide (DMSO) or H2O at 75× the final concentration. […] The next day, the OD600 was determined with a plate reader (Thermo Scientific) and normalized to percent of growth of the vehicle control after subtracting the OD600 from blank media.

Test [4] has as its system PA14 ΔfpvA ΔfpvB pHERD20T-fpvB. In words: Checkerboard assay TS and siderophores, FpvB expressed. As to conditions: 10:90 + 2% arabinose. An excerpt: We investigated this hypothesis by treating the ΔfpvA ΔfpvB mutant complemented with fpvA or fpvB with TS and pyoverdine-Fe^3+. If pyoverdine competes with TS for the same binding site in the transporter, a reduction in TS susceptibility would be expected, as competition would decrease entry of the antibiotic into the cell. TS susceptibility decreased >8-fold with increasing concentrations of pyoverdine-Fe^3+ when FpvA was expressed (see Fig. S2A in the supplemental material).
Supplementary file : FIG S2 Checkerboard assays of the PA14 ΔfpvA ΔfpvB strain complemented with fpvA and fpvB in trans with TS and siderophores. […] Checkerboards of the PA14 ΔfpvA ΔfpvB pHERD20T-fpvB strain with TS and enterobactin (G), ferrioxamine E (H), and arthrobactin (I). Results are averaged from three independent biological replicates. Cells in the assay were grown in 10:90 + 2% arabinose. Download FIG S2, EPS file, 2.2 MB.
Checkerboards (8 rows by 8 columns) were conducted as previously described in a 96-well plate (Nunc) ([13], [14]). TS at 75× the final concentration dissolved in DMSO was added in columns from bottom to top in increasing concentrations. […] The next day, the OD600 was determined with a plate reader (Thermo Scientific) and normalized to percent of growth of the vehicle control (DMSO) after subtracting the OD600 from blank media.

Test [5] relates to PA14 ΔfpvA ΔfpvB ΔfiuA ΔfoxA quadruple mutant. The experiment in a line: Growth phenotypes of deletion mutants, quadruple mutant. As to conditions: 64 μg/mL DSX, 10 μg/mL siderophores, 10:90. The source says:
PA14, ΔfpvA, ΔfpvB, and ΔfpvA ΔfpvB strains treated with TS (A) and DSX (B) in 10:90. Green indicates growth, and white indicates no growth. Growth is expressed as percent of control. The PA14 ΔfpvA ΔfpvB strain complemented with pHERD20T, fpvA, or fpvB treated with TS (C) and DSX (D) in 10:90. […] All experiments are averaged from three independent biological replicates. Blue indicates growth and white indicates no growth. (H) Summary of growth phenotypes of WT PA14 and combinations of single, double, triple, and quadruple deletion mutants in fpvA, fpvB, fiuA, and foxA. […] Green indicates growth, whereas no growth is indicated in white. […] Representative plates are shown.
If there were no transporters for a particular siderophore, the mutant would fail to grow due to iron restriction.

Setting [6] is: 64 μg/mL DSX + 10 μg/mL pyoverdine.
Setting [7] is: DSX 64 μg/mL or pyoverdine 10 μg/mL alone, 10:90.

Molecules are shown by their SMILES. Starred links: 1 amine or outer side, 2 acyl side, 3 side chain; linkers in the order of their positions; H or OH if unused. Positions of bridges follow the written chain, without caps; N, C: chain ends. Non-standard residues stand in square brackets, D forms with d. Residues, ends and D or L forms follow the SMILES beside them. ξ: configuration not given here. X1 = O=C([C@@H]1CCN=C2C(N[*:1])=Cc3cc(O)c(O)cc3N21)[*:2]; ξOrn(N(OH)CHO) = NC(CCCN(O)C=O)C(=O)O; Suc = O=C(CCC(=O)[*:2])[*:1]; ξK = NCCCCC(N)C(=O)O; ξS = NC(CO)C(=O)O

In the case of `NCCCCC(NC(=O)C(CO)NC(=O)[C@@H]1CCN=C2C(NC(=O)CCC(=O)O)=Cc3cc(O)c(O)cc3N21)C(=O)NCC(=O)NC(CCCN(O)C=O)C(=O)NC1CCCCNC(=O)C(CO)NC(=O)C(CCCN(O)C=O)NC1=O` (stereo partly shown) [pyoverdine] (Suc-[X1][ξS][ξK]G[ξOrn(N(OH)CHO)][ξK][ξOrn(N(OH)CHO)][ξS]; lactam 6-C), the “growth with siderophore in the presence of DSX” value in test [1] (setting [6]) and in test [2] (setting [6]) was “increased growth” each time. The growth versus control result in test [1] (setting [7]) and in test [2] (setting [7]) was “increased growth” each time.

As for `CC(=O)N(O)CCCCCNC(=O)CCC(=O)N(O)CCCCCNC(=O)CCC(=O)N(O)CCCCCN` [ferrioxamine B], the “growth in the presence of siderophore” value in test [3] is given as “inhibited”. The “effect of siderophore on TS susceptibility” value in test [4] is reported as “antagonized TS susceptibility”. Moreover, the “growth in the presence of compound” value in test [5] is recorded as “failed to grow”.

For the origin of these results see paper PMC9973354 (mBio, 2022).
